Assay results published in patent US12091411B2, “IRAK degraders and uses thereof” (Kymera Therapeutics, Inc., priority 2022, dated 2024).
Read-outs that look alike come from different tables or passages of the source.

Biological target: T1, IRAK4 (Homo sapiens, UniProt Q9NWZ3)
T1 construct: Degradation of IRAK4 in OCI-LY10 was quantitatively measured using Meso Scale Discovery technology; endogenous in cells; host or cells: OCI-LY10
T1 sequence (Q9NWZ3 1-460): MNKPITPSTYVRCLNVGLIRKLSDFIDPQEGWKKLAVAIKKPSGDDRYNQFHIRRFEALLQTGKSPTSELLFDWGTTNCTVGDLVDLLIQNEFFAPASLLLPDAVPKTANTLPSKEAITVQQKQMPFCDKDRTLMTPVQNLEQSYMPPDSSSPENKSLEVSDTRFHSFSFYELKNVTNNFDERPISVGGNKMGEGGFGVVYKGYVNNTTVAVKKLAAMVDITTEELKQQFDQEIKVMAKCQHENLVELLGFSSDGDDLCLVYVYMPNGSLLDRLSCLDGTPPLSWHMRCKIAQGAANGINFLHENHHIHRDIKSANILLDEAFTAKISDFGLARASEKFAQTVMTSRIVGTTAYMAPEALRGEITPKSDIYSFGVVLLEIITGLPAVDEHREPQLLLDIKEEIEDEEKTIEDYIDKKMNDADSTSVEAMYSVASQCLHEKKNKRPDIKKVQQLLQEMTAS
Assay: IRAK4 MSD Degradation in OCI-LY10
Assay type: cell-based
Settings: OCI-LY10 cells, MSD
Procedure: Degradation of IRAK4 in OCI-LY10 was quantitatively measured using Meso Scale Discovery technology. […] Compounds were then added to the assay plates with a final top concentration of 1 to 10 μM in a 1:3 dilution series with total of 8 doses. The assay plates were then incubated for 4 to 24 hours at 37° C. under 5% CO2. […] To prepare MSD assay plates (Meso Scale Discovery Catalog number L15XA-3), the plates were coated with 2 μg/mL capture antibody (mouse Anti-IRAK4 antibody [2H9], ab119942) in PBS, at 40 μL/well. […] Cell lysates were then added to MSD assay plates and the plates were incubated at room temperature for 1 hour. The plates were then washed 3 times with 150 μL/well TBST buffer and 25 μL/well primary detection antibody (rabbit Anti-IRAK4 antibody [Y279], from Abcam. Catalog number ab32511, 1 μg/mL). The assay plates were then incubated at room temperature for 1 hour, washed 3 times with 150 μL/well TBST buffer and 25 μL/well secondary detection antibody, SULFO-TAG anti-rabbit antibody were added (anti-rabbit antibody from Meso Scale Discovery, Catalog number R32AB-1, 1 μg/mL). The assay plates were then incubated at room temperature for 1 hour, washed 3 times with 150 μL/well TBST buffer, and 150 μL/well MSD reading buffer (Meso Scale Discovery catalog number R92TC-2) was added. The plates were then analyzed by a MSD reader (Meso Scale Discovery, Model Quick Plex SQ 120). The data was then analyzed by software Prism 7.0 from GraphPad and the dose-depended IRAK4 degradation were fit using a three-parameter logistic equation to calculate DC50.
The letter codes for IRAK4 DC50 include: A (<0.01 μM); B (0.01 to <0.1 μM); C (0.1 to 0.2 μM); and D (>0.2 μM or not tested).

[1] = 4 hrs incubation, read-out: IRAK4 degradation in OCI-LY10 at 4 hrs: DC50
[2] = 24 hrs incubation, read-out: IRAK4 degradation in OCI-LY10 at 24 hrs: DC50

| SMILES | DC50 [1] [nM] | DC50 [2] [nM] |
| --- | --- | --- |
| Cn1c(=O)n(C2CCC(=O)NC2=O)c2cccc(C#CCN3CCN(C[C@H]4CC[C@H](n5cc(NC(=O)c6cnn7ccc(N8C[C@H]9C[C@@H]8CO9)nc67)c(C(F)(F)F)n5)CC4)CC3)c21 (relative stereo) [I-112] | 10 to 100 | > 200 |
| Cc1nn([C@H]2CC[C@H](CN3CCN(CC#Cc4cccc5c4n(C)c(=O)n5C4CCC(=O)NC4=O)CC3)CC2)cc1NC(=O)c1cnn2ccc(N3C[C@H]4C[C@@H]3CO4)nc12 (relative stereo) [I-115] | 10 to 100 | > 200 |
| Cn1c(=O)n(C2CCC(=O)NC2=O)c2cccc(N3CCN(C4CCN([C@H]5CC[C@@H](n6cc(NC(=O)c7cnn8ccc(N9C[C@H]%10C[C@@H]9CO%10)nc78)c(C(F)F)n6)CC5)CC4)CC3)c21 (single isomer, unassigned) [I-425] | < 10 | > 200 |
| Cn1c(=O)n(C2CCC(=O)NC2=O)c2cccc([C@@H]3CCN(C[C@H]4CC[C@H](n5cc6cc(NC(=O)c7cccc(C(F)(F)F)n7)ncc6n5)CC4)C[C@H]3F)c21 (single isomer, unassigned) [I-656] | > 200 | < 10 |
| Cn1c(=O)n(C2CCC(=O)NC2=O)c2cccc([C@H]3CCN(C[C@H]4CC[C@H](n5cc6cc(NC(=O)c7cccc(C(F)(F)F)n7)ncc6n5)CC4)C[C@H]3F)c21 (single isomer, unassigned) [I-781] | > 200 | > 200 |
| COc1ccc2c(c1C#CCO[C@@H]1CCN(C[C@H]3CC[C@H](n4cc(NC(=O)c5cnn6ccc(N7C[C@H]8C[C@@H]7CO8)nc56)c(C(F)F)n4)CC3)C[C@@H]1F)n(C)c(=O)n2C1CCC(=O)NC1=O (stereo partly shown) [I-1] | 10 to 100 | > 200 |
| COc1ccc2c(c1C#CCOC1CCN(C[C@H]3CC[C@H](n4cc(NC(=O)c5cnn6ccc(N7C[C@H]8C[C@@H]7CO8)nc56)c(C(F)F)n4)CC3)CC1)n(C)c(=O)n2C1CCC(=O)NC1=O (stereo partly shown) [I-2] | < 10 | > 200 |
| Cn1c(=O)n(C2CCC(=O)NC2=O)c2cccc([C@]34C[C@](COC5CCN(C[C@H]6CC[C@H](n7cc(NC(=O)c8cnn9ccc(N%10C[C@H]%11C[C@@H]%10CO%11)nc89)c(C(F)F)n7)CC6)CC5)(C3)C4)c21 (stereo partly shown) [I-3] | < 10 | > 200 |
| Cn1c(=O)n(C2CCC(=O)NC2=O)c2cccc(C#CCN3CCCN(C[C@H]4CC[C@H](n5cc(NC(=O)c6cnn7ccc(N8C[C@H]9C[C@@H]8CO9)nc67)c(C(F)F)n5)CC4)CC3)c21 (stereo partly shown) [I-5] | < 10 | > 200 |
| O=C1CCN(c2cncc3c2cccc3[C@H]2C[C@@H](CN3CCN(C[C@H]4CC[C@H](n5cc(NC(=O)c6cnn7ccc(N8C[C@H]9C[C@@H]8CO9)nc67)c(C(F)F)n5)CC4)CC3)C2)C(=O)N1 [I-6] | < 10 | > 200 |
| C[C@H]1CN(C[C@H]2CC[C@H](n3cc(NC(=O)c4cnn5ccc(N6C[C@H]7C[C@@H]6CO7)nc45)c(C(F)F)n3)CC2)CCN1CC#Cc1cccc2c1n(C)c(=O)n2C1CCC(=O)NC1=O (stereo partly shown) [I-9] | 10 to 100 | > 200 |
| O=C1CCN(c2cncc3c(C#CCOC4CCN(C[C@H]5CC[C@H](n6cc(NC(=O)c7cnn8ccc(N9C[C@H]%10C[C@@H]9CO%10)nc78)c(C(F)F)n6)CC5)CC4)cccc23)C(=O)N1 [I-10] | < 10 | > 200 |
| O=C1CCN(c2cncc3cc(C#CCOC4CCN(C[C@H]5CC[C@H](n6cc(NC(=O)c7cnn8ccc(N9C[C@H]%10C[C@@H]9CO%10)nc78)c(C(F)F)n6)CC5)CC4)ccc23)C(=O)N1 [I-11] | > 200 | > 200 |
| CN(C[C@H]1CC[C@H](n2cc(NC(=O)c3cnn4cccnc34)c(C(F)F)n2)CC1)C1CCN(c2cccc3c(N4CCC(=O)NC4=O)cncc23)CC1 [I-13] | > 200 | > 200 |

Further lines, results first:

| DC50 [1] [nM] | DC50 [2] [nM] | SMILES |
| --- | --- | --- |
| < 10 | > 200 | Cn1c(=O)n(C2CCC(=O)NC2=O)c2cccc(CCCN3CCN(C[C@H]4CC[C@H](n5cc(NC(=O)c6cnn7ccc(N8C[C@H]9C[C@@H]8CO9)nc67)c(C(F)F)n5)CC4)CC3)c21 (relative stereo) [I-114] |
| > 200 | 10 to 100 | Cn1c(=O)n(C2CCC(=O)NC2=O)c2cccc(C#CCN3CCN(C[C@H]4CC[C@H](n5cc(NC(=O)c6cnn7ccc(N8C[C@H]9C[C@@H]8CO9)nc67)c(Cl)n5)CC4)CC3)c21 (relative stereo) [I-117] |
| < 10 | > 200 | C[C@H]1CN(C[C@H]2CC[C@H](n3cc(NC(=O)c4cnn5ccc(N6C[C@H]7C[C@@H]6CO7)nc45)c(C(F)F)n3)CC2)CC[C@@H]1OCC#Cc1cccc2c1n(C)c(=O)n2[C@H]1CCC(=O)NC1=O (single isomer, unassigned) [I-67] |
| 10 to 100 | > 200 | Cn1c(=O)n([C@@H]2CCC(=O)NC2=O)c2cccc(C#CCN3CCN(C[C@H]4CC[C@H](n5cc(NC(=O)c6cnn7ccc(N8C[C@H]9C[C@@H]8CO9)nc67)c(C(F)F)n5)CC4)CC3)c21 (single isomer, unassigned) [I-71] |
| < 10 | > 200 | Cn1c(=O)n([C@H]2CCC(=O)NC2=O)c2cccc(C#CCN3CCN(C[C@H]4CC[C@H](n5cc(NC(=O)c6cnn7ccc(N8C[C@H]9C[C@@H]8CO9)nc67)c(C(F)F)n5)CC4)CC3)c21 (single isomer, unassigned) [I-72] |
| 10 to 100 | > 200 | C[C@H]1CN(C[C@H]2CC[C@H](n3cc(NC(=O)c4cnn5ccc(N6C[C@H]7C[C@@H]6CO7)nc45)c(C(F)F)n3)CC2)CC[C@@H]1OCC#Cc1cccc2c1n(C)c(=O)n2[C@@H]1CCC(=O)NC1=O (single isomer, unassigned) [I-73] |
| < 10 | > 200 | Cn1c(=O)n(C2CCC(=O)NC2=O)c2cccc(N3CCN(C4CCN([C@H]5CC[C@H](n6cc(NC(=O)c7cnn8ccc(N9C[C@H]%10C[C@@H]9CO%10)nc78)c(C(F)F)n6)CC5)CC4)CC3)c21 (single isomer, unassigned) [I-201] |
| > 200 | < 10 | Cn1c(=O)n(C2CCC(=O)NC2=O)c2cccc(C3CN(C4CCN([C@H]5CC[C@H](n6cc(NC(=O)c7cnn8ccc(N9C[C@H]%10C[C@@H]9CO%10)nc78)c(C(F)F)n6)CC5)CC4(F)F)C3)c21 (single isomer, unassigned) [I-736] |
| > 200 | < 10 | Cn1c(=O)n(C2CCC(=O)NC2=O)c2ccc(N3CC(CO[C@H]4CCN(C[C@H]5CC[C@H](n6cc(NC(=O)c7cnn8ccc(N9C[C@H]%10C[C@@H]9CO%10)nc78)c(C(F)F)n6)CC5)C[C@H]4F)C3)c(F)c21 (single isomer, unassigned) [I-738] |
| < 10 | > 200 | O=C1CCC(n2c(=O)n(C3CC3)c3c(C#CCN4CCN(C[C@H]5CC[C@H](n6cc(NC(=O)c7cnn8ccc(N9C[C@H]%10C[C@@H]9CO%10)nc78)c(C(F)F)n6)CC5)CC4)cccc32)C(=O)N1 (stereo partly shown) [I-4] |
| < 10 | > 200 | Cn1c(=O)n(C2CCC(=O)NC2=O)c2cccc([C@]34C[C@](CN5CCN(C[C@H]6CC[C@H](n7cc(NC(=O)c8cnn9ccc(N%10C[C@H]%11C[C@@H]%10CO%11)nc89)c(C(F)F)n7)CC6)CC5)(C3)C4)c21 (stereo partly shown) [I-8] |
| > 200 | > 200 | Cn1c(=O)n(C2CCC(=O)NC2=O)c2cccc(C#CCOC3C[C@H]4CC[C@@H](C3)N4C[C@H]3CC[C@H](n4cc(NC(=O)c5cnn6ccc(N7C[C@H]8C[C@@H]7CO8)nc56)c(C(F)F)n4)CC3)c21 (stereo partly shown) [I-12] |
